Results published in patent US11116804B2, “Modulation of the gut microbiome to treat mental disorders or diseases of the central nervous system” (Holobiome, Inc., priority 2016, dated 2021).
Entries after “also recorded” stand apart in the source; their conditions may differ.

Assays:
E. gabavorous KLE1738 = assay: Growth induction of E. gabavorous by compounds spotted on FAAy plates; format: cell-based, Evtepia gabavorous; conditions: 5 μL of stock spotted on FAAy plates spread with E. gabavorous, anaerobic, one week
Protocol: Stocks of each compound (purchased from Sigma, excluding the ATCC Mineral and Vitamin mixes) were prepared dependent on solubility in water at the concentrations shown in FIG. 2G. Five μL of the stocks were then spotted on FAAy plates spread with E. gabavorous, and incubated anaerobically for one week, and any growth was observed.

[1] = in rodents; cited from earlier work
[2] = in mice; cited from earlier work

Row | Compound | growth induction of E. gabavorous by spotted compound (E. gabavorous KLE1738) | brain efflux rate relative to influx rate [1] [times] | half-life [2] [min]
1 | O=C(O)CC(=O)O [malonic acid] | only GABA caused growth induction | – | –
2 | O=C(O)CCC(=O)O [succinic acid] | only GABA caused growth induction | – | –
3 | CC(C)[C@H](N)C(=O)O [valine] | only GABA caused growth induction | – | –
4 | NC(=O)CC[C@H](N)C(=O)O [glutamine] | only GABA caused growth induction | – | –
5 | C[C@@H](O)[C@H](N)C(=O)O [threonine] | only GABA caused growth induction | – | –
6 | C[C@H](N)C(=O)O [alanine] | only GABA caused growth induction | – | –
7 | NCCCC(=O)O [GABA, gamma-aminobutyric acid] | capable of inducing growth of E. gabavorous KLE1738; also recorded: caused growth induction; also recorded: induced growth | 17 | 17
8 | CC(O)C(=O)O (stereo not shown) [lactic acid] | only GABA caused growth induction | – | –
